Laboratory results from ChEMBL document CHEMBL1139287, “Spiro(imidazo[1,2-a]pyrano[2,3-c]pyridine-9-indenes) as inhibitors of gastric acid secretion” (Bioorg Med Chem, 2009).

Legend:
physchem [1] = conditions: octanol/water, pH 7.4
Description: Octanol-water distribution coefficient, log D at pH 7.4 at 25 degC by potentiometric titration method

physchem [2] = test: physchem
Description: Dissociation constant, pKa of the compound

[3] = Octanol-water distribution coefficient, log D by HPLC; format: physicochemical

SMILES	logD (physchem [1])	pKa (physchem [2])	logD [3]
Cc1nc2c3c(c(C(=O)NC4CC4)cn2c1C)CCC1(CCc2ccccc21)O3 (stereo not given)	3.64	6.76	–
Cc1nc2c3c(c(C(=O)N(C)C)cn2c1C)CCC1(CCc2cc(F)ccc21)O3 (stereo not given)	–	–	3
CON(C)C(=O)c1cn2c(C)c(C)nc2c2c1CCC1(CCc3ccccc31)O2 (stereo not given)	3.15	6.63	–
Cc1nc2c3c(c(C(=O)N4CCCC4)cn2c1C)CCC1(CCc2ccccc21)O3 (stereo not given)	3.36	6.88	–
Cc1nc2c3c(c(C(=O)N(C)C)cn2c1C)CCC1(Cc2ccccc2C1)O3	–	6.84	2.9
Cc1nc2c3c(c(C(=O)N4CCC4)cn2c1C)CCC1(CCc2ccccc21)O3 (stereo not given)	3.19	6.81	–
Cc1nc2c3c(c(C(=O)N4CCCCC4)cn2c1C)CCC1(CCc2ccccc21)O3 (stereo not given)	3.87	6.81	–
Cc1nc2c3c(c(C(=O)N4CCOCC4)cn2c1C)CCC1(CCc2ccccc21)O3 (stereo not given)	2.85	6.74	–
Cc1nc2c3c(c(C(=O)N4CC(F)(F)C4)cn2c1C)CCC1(CCc2ccccc21)O3 (stereo not given)	3.57	6.55	–
Cc1nc2c3c(c(C(=O)Nc4ccccc4)cn2c1C)CCC1(CCc2ccccc21)O3 (stereo not given)	4.7	6.76	–
CNC(=O)c1cn2c(C)c(C)nc2c2c1CCC1(CCc3ccccc31)O2 (stereo not given)	3.29	6.8	–
Cc1cccc2c1CCC21CCc2c(C(=O)N(C)C)cn3c(C)c(C)nc3c2O1 (stereo not given)	3.42	6.87	–
Cc1nc2c3c(c(C(=O)N(C)C)cn2c1C)CCC1(CCc2ccccc21)O3 (racemic)	2.91	6.84	–
